Test results: US8614247B2, “Methods for preventing, attenuating or treating pulmonary hypertension using a serotonin transporter inhibitor, and pharmaceutical compositions for the treatment thereof” (Institut National de la Sante et de la Recherche Medicale, priority 2003, dated 2013)

Columns and labels:
[1] = tested on: mice exposed to acute hypoxia; test: Hemodynamic response (RVSP) of normoxic mice to acute hypoxia; type: in vivo, mice (C57BL6/J); settings: two-day pretreatment; for pressure (RVSP) response to acute hypoxia: antagonists 2 mg/kg/day i.p., compared with vehicle-treated controls
Experimental: All experiments were performed using adult male mice (C57BL6/J, 8 weeks old) in conformity with the institutional guidelines that are in compliance with national and international laws and policies.
Mice were anaesthetized with ketamine (60 mg/kg, i.p) and xylazine (10 mg/kg, i.p). The trachea was cannulated, and the lungs were ventilated with room air at a tidal volume of 0.2 ml and a rate of 90 breaths per minute. Systemic arterial pressure was determined by catheterization of the carotid artery. A 26-gauge needle was then introduced percutaneously into the right ventricle via the subxyphoid approach. Right ventricular systolic pressure (RVSP) was measured using a Gould P10 EZ pressure transducer connected to pressure modules and a Gould TA 550 recorder. RVSP and heart rate were recorded first while the animal was ventilated with room air and then after 5 min of ventilation with hypoxic gas mixture (8% O2, 92% N2). […] If the heart rate fell below 300 bpm, measurements were excluded from analysis.
To investigate the effects of 5-HTT inhibition and/or 5-HT receptor blockade on acute hypoxic vasoconstriction, nine groups of mice (6-7 in each group) were studied. […] The last group consisted of control animals that received distilled water by gavage. The treatments were performed for two days and acute hypoxic vasoconstriction was measured on the following day one hour after the last treatment.

[2] = tested on: human pulmonary artery smooth muscle cells (PA-SMCs); test: 5-HT-induced proliferation of human PA-SMCs ([3H]thymidine incorporation); type: cell-based; settings: cells in 0.2% FCS; for 5-HT-induced increase in [3H]thymidine incorporation (mitogenic response to 5-HT): drug at 10^−5 M, added before 5-HT
Experimental: Effect of 5-HT on the Proliferation of Human Pulmonary Artery Smooth Muscle Cells (PA-SMCs)
The methods used for the culture and the characterization of human PA-SMCs have been previously described (Eddahibi, Humbert et al. 2001). In brief, PA-SMCs were obtained from patients undergoing lung resection for cancer. They were seeded in 24-well plates at a density of 5×10^4 cells/well and allowed to adhere in DMEM supplemented with 15% fœtal calf serum (FCS). Cells were then subjected to 48 h of growth arrest in medium containing only 0.2% FCS before being incubated in DMEM supplemented with 0.2% FCS, 0.6 mM of ascorbic acid, 0.1 mM of iproniazid (a monoamine oxidase inhibitor), 0.6 μCi/mL of [^3H]thymidine, with or without 5-HT (10^−8 to 10^−6 M). […] Each of these drugs was added 20 min before 5-HT. After incubation for 24 hours, cells were washed twice with PBS, treated with ice-cold 10% trichloroacetic acid (1 ml/well), and dissolved in 0.1 N NaOH (0.5 ml/well). The incorporated radioactivity was counted and reported as cpm per well.

[3] = tested on: mice exposed to chronic hypoxia; type: in vivo, mice (C57BL6/J); settings: for muscularization of distal pulmonary vessels: vs control mice under similar hypoxic conditions; for hypoxia-induced increase in RVSP: 2-week hypoxia (10% O2), daily treatment: citalopram, fluoxetine 10 mg/kg/day, ketanserin 2 mg/kg/day, GR127935 2 or 10 mg/kg/day, vs vehicle
Experimental: All experiments were performed using adult male mice (C57BL6/J, 8 weeks old) in conformity with the institutional guidelines that are in compliance with national and international laws and policies. […] To establish the hypoxic environment, the chamber was flushed with a mixture of room air and nitrogen, and the gas was recirculated. The chamber environment was monitored using an oxygen analyzer (Servomex OA150, Crowborough, England). Carbon dioxide was removed by soda lime granules, and excess humidity was prevented by cooling the recirculation circuit. The chamber temperature was maintained at 22-24° C. The chamber was opened every other day for 1 hour to clean the cages and replenish food and water supplies. Normoxic mice were kept in the same room, with the same light-dark cycle. […] After incision of the abdomen and diaphragm, a 26-gauge needle connected to a pressure transducer was inserted into the right ventricle, and RVSP was recorded immediately. Blood was then sampled for hematocrit determination. […] The right ventricle (RV) was dissected from the left ventricle+septum (LV+S), and these dissected samples were weighed. The lungs were fixed by intratracheal infusion of 4% aqueous buffered formalin at a pressure of 23 cm H2O. The entire specimen was immersed in a bath of the same fixative for one week. A midsagittal slice of the right lung including the apical, azygous and diaphragmatic lobes was processed for paraffin embedding. Sections (5 μm thick) were cut for light microscopy and stained with hematoxylin-phloxin-saffron and orcein-picroindigo-carmine. In each mouse, a total of 50-60 […] vessels accompanying either alveolar ducts or alveoli were analyzed by an observer blinded to treatment. Each vessel was categorized as nonmuscular (no evidence of any vessel wall muscularization), partially muscular (SMCs identifiable in less than three-fourths of the vessel circumference), or fully muscular (SMCs in more than three-fourths of the vessel circumference). […] The percentage of pulmonary vessels in each muscularization category was determined by dividing the number of vessels in that category by the total number counted in the same experimental group. […] The animals were treated once a day during the two-week exposure to hypoxia.

mice in normoxia = test: Physiological parameters during normoxia after treatment; type: in vivo, mice (C57BL6/J); settings: control mice 88±7 mmHg
experimental hypoxic PH = settings: previous studies (Eddahibi, Raffestin et al. 1998); cited from earlier work
[4] = tested on: rat lung SMC and lung fibroblasts; settings: cited from earlier work
5-HTT = 5-HTT (Rattus norvegicus, UniProt P31652); settings: cited from earlier work
Sequence of 5-HTT (P31652 whole entry): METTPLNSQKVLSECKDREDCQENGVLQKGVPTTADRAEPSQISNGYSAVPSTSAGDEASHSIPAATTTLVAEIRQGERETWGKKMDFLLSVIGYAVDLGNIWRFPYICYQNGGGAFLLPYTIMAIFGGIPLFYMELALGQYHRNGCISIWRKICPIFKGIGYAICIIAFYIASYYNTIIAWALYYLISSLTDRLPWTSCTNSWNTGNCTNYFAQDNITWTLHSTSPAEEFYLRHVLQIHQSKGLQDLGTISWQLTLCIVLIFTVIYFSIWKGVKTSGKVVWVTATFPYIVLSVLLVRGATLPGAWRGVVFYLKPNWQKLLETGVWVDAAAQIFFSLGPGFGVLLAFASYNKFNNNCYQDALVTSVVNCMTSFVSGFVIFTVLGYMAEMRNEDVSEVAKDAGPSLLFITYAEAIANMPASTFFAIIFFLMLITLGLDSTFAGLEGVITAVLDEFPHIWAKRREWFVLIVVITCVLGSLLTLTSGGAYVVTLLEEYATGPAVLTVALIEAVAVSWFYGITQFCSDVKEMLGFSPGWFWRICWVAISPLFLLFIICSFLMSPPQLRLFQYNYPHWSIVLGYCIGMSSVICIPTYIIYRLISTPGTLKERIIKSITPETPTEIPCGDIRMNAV

rats = settings: Keegan et al. 2001; cited from earlier work
[5] = 2-week chronic hypoxia, daily treatment

Q: Which “baseline RVSP” value ([1]; 10 mg/kg/day by gavage, normoxic ventilation) does the source give for `CNCCC(Oc1ccc(C(F)(F)F)cc1)c1ccccc1` (stereo not shown) [fluoxetine] here?
A: did not alter

Q: And the “5-HT-induced increase in [3H]thymidine incorporation (mitogenic response to 5-HT)” value (“5-HT-induced increase” for short) [2]?
A: completely abolished

Q: And the “muscularization of distal pulmonary vessels” value [3, 5]?
A: markedly attenuated

Q: And the “hypoxia-induced increase in RVSP” value [3]?
A: significantly attenuated

Q: And the “Mean systemic arterial pressure” value (mice in normoxia)?
A: 86±5 mmHg

Q: Which “5-HT-induced increase” value [2] does the source give for `Cl.Cn1ccc2cc3c(cc21)CCN3C(=O)Nc1cccnc1` [SB 206553, N-3-pyridinyl-3,5-dihydro-5-methyl-benzo[1,2-b:4,5-b′]dipyrrole-1(2H)-carboxamide hydrochloride] here?
A: not affected

Q: For `NCCc1c[nH]c2ccc(O)cc12` [5-HT, 5-hydroxytryptamine], which “[3H]thymidine incorporation” value ([2]; 5-HT 10^−8-10^−6 M) is on record?
A: concentration-dependent increase

Q: For `CCN[C@@H](C)Cc1cccc(C(F)(F)F)c1` [dexfenfluramine], which “development of experimental hypoxic PH” value (experimental hypoxic PH) is on record?
A: not to attenuate

Q: For `CN(C)CCCC1(c2ccc(F)cc2)OCc2cc(C#N)ccc21` (stereo not shown) [citalopram], which “Mean systemic arterial pressure” value (mice in normoxia) is on record?
A: 87±7 mmHg

Q: What does the source list for `O=C(c1ccc(F)cc1)C1CCN(CCn2c(=O)[nH]c3ccccc3c2=O)CC1` [ketanserin]?
A: pressure (RVSP) response to acute hypoxia [1]: altered neither the response to acute hypoxia; 5-HT-induced increase in [3H]thymidine incorporation (mitogenic response to 5-HT) [2]: not affected; Mean systemic arterial pressure (mice in normoxia): 83±4 mmHg

Q: Which mitogenic effect [4] does the source give for `CCNC(C)Cc1cccc(C(F)(F)F)c1` (stereo not shown) [fenfluramine] here?
A: mitogenic

Q: For `NC1=NCC(c2ccccc2)O1` (stereo not shown) [a minorex], which 5-HTT substrate (5-HTT) is on record?
A: 5-HTT substrates

Q: For `CC(C)(N)Cc1ccc(Cl)cc1` [chlorphentermine], which 5-HTT substrate (5-HTT) is on record?
A: 5-HTT substrates

Q: With `COc1ccc(NC(=O)c2ccc(-c3ccc(-c4noc(C)n4)cc3C)cc2)cc1N1CCN(C)CC1` [GR127935, 2′-methyl-4′-(5-methyl-[1,2,4]oxadiazol-3-yl)-biphenyl-4-carboxylic acid [4-methoxy-3-(4-methyl-piperazine-1-yl)-phenyl]amide] as the compound, how does the “pressure (RVSP) response to acute hypoxia” value [1] read?
A: abolished the pressure response to hypoxia

Q: And the “5-HT-induced increase” value [2]?
A: not affected

Q: What about the “protection against development of PH” value (rats) of the same compound?
A: partial protection

Q: What about the “muscularization of distal pulmonary vessels” value [3, 5] of the same compound?
A: did not affect

Q: And the “right ventricular hypertrophy (RV/LV+S ratio)” value ([3]; 2-week chronic hypoxia, daily treatment, vs hypoxic vehicle-treated mice (41.5±1.5%))?
A: did not differ

Q: What about the “hypoxia-induced increase in RVSP” value [3] of the same compound?
A: did not differ

Q: And the “Mean systemic arterial pressure” value (mice in normoxia)?
A: 85±6 mmHg
